Test results reported in ChEMBL document CHEMBL1201862, “PubChem BioAssay data set” (2004).
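Five compound concentrations were applied to cells in 96-well plates for 48 hours; endpoints were derived by simple linear interpolation of the resulting dose-response curve. GI50 is the concentration that inhibits growth by half.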 Activity calls are given as the source filed them. No stated cut-off is given here; in the data, active = GI50 up to about 1.1 µM and inactive = higher.

Experiments:
Assay in all cases: DTP human tumour cell line panel, 48 h
[1] = test system: CAKI-1
[2] = test system: HT-29
[3] = test system: SN12C
[4] = test system: U-251
[5] = test system: SR
[6] = test system: SK-MEL-2
[7] = test system: SF-539
[8] = test system: M14
[9] = test system: UACC-257
[10] = test system: LOX IMVI
[11] = test system: OVCAR-3
[12] = test system: NCI-H23
[13] = test system: KM12
[14] = test system: K562
[15] = test system: 786-0
[16] = test system: RPMI-8226
[17] = test system: PC-3
[18] = test system: BT-549
[19] = test system: MDA-N
[20] = test system: Hs-578T

SMILES | GI50 [1] | GI50 [2] | GI50 [3] | GI50 [4] | GI50 [5] | GI50 [6] | GI50 [7] | GI50 [8] | GI50 [9] | GI50 [10] | GI50 [11] | GI50 [12] | GI50 [13] | GI50 [14] | GI50 [15] | GI50 [16] | GI50 [17] | GI50 [18] | GI50 [19] | GI50 [20]
NC(=O)COc1ccccc1 | > 100 µM (inactive) | > 100 µM (inactive) | > 100 µM (inactive) | > 100 µM (inactive) | > 100 µM (inactive) | > 100 µM (inactive) | > 100 µM (inactive) | > 100 µM (inactive) | > 100 µM (inactive) | > 100 µM (inactive) | > 100 µM (inactive) | > 100 µM (inactive) | > 100 µM (inactive) | > 100 µM (inactive) | > 100 µM (inactive) | > 100 µM (inactive) | – | – | – | –
Nc1nc(Cl)cc(NC23CC4CC(CC(C4)C2)C3)n1 | > 100 µM (inactive) | – | > 100 µM (inactive) | 32 µM (inactive) | > 100 µM (inactive) | 19.4 µM (inactive) | 47.9 µM (inactive) | > 100 µM (inactive) | > 100 µM (inactive) | – | > 100 µM (inactive) | 34 µM (inactive) | > 100 µM (inactive) | > 100 µM (inactive) | > 100 µM (inactive) | > 100 µM (inactive) | 29.2 µM (inactive) | 61.7 µM (inactive) | > 100 µM (inactive) | –
COP(=O)(CP(=O)(OC)OCCC(C)CCC=C(C)C)OC (configuration not stated) | > 100 µM (inactive) | – | > 100 µM (inactive) | 26.7 µM (inactive) | – | > 100 µM (inactive) | > 100 µM (inactive) | > 100 µM (inactive) | > 100 µM (inactive) | > 100 µM (inactive) | > 100 µM (inactive) | > 100 µM (inactive) | > 100 µM (inactive) | > 100 µM (inactive) | > 100 µM (inactive) | – | > 100 µM (inactive) | > 100 µM (inactive) | > 100 µM (inactive) | –
Cc1ccc(S(=O)(=O)N/N=C2\CC3C4CCC3C2C4)cc1 (configuration not stated) | > 100 µM (inactive) | > 100 µM (inactive) | > 100 µM (inactive) | > 100 µM (inactive) | > 100 µM (inactive) | > 100 µM (inactive) | > 100 µM (inactive) | > 100 µM (inactive) | > 100 µM (inactive) | > 100 µM (inactive) | > 100 µM (inactive) | > 100 µM (inactive) | > 100 µM (inactive) | > 100 µM (inactive) | > 100 µM (inactive) | – | > 100 µM (inactive) | – | > 100 µM (inactive) | > 100 µM (inactive)
C(=N\c1ccc(-c2nc3ccccc3o2)cc1)/c1ccco1 | 40 µM (inactive) | 63.5 µM (inactive) | 61.9 µM (inactive) | – | 65.9 µM (inactive) | 87.1 µM (inactive) | > 100 µM (inactive) | 79.6 µM (inactive) | 48.3 µM (inactive) | 58.9 µM (inactive) | – | 78.2 µM (inactive) | – | – | 75.2 µM (inactive) | 0.0453 µM (active) | 55.7 µM (inactive) | 77.4 µM (inactive) | 64 µM (inactive) | –
CCOC(=O)C(C(=O)OCC)C(=S)NC1OC(COC(C)=O)C(OC(C)=O)C(OC(C)=O)C1OC(C)=O (configuration not stated) | > 100 µM (inactive) | > 100 µM (inactive) | > 100 µM (inactive) | > 100 µM (inactive) | > 100 µM (inactive) | > 100 µM (inactive) | > 100 µM (inactive) | > 100 µM (inactive) | > 100 µM (inactive) | > 100 µM (inactive) | > 100 µM (inactive) | > 100 µM (inactive) | > 100 µM (inactive) | – | > 100 µM (inactive) | > 100 µM (inactive) | – | > 100 µM (inactive) | > 100 µM (inactive) | > 100 µM (inactive)
CC1(C)N=C(/C(C#N)=[N+](/[O-])C(=O)c2ccccc2)C(C)(C)N1O | > 100 µM (inactive) | > 100 µM (inactive) | > 100 µM (inactive) | > 100 µM (inactive) | > 100 µM (inactive) | > 100 µM (inactive) | > 100 µM (inactive) | > 100 µM (inactive) | > 100 µM (inactive) | > 100 µM (inactive) | > 100 µM (inactive) | > 100 µM (inactive) | > 100 µM (inactive) | > 100 µM (inactive) | > 100 µM (inactive) | > 100 µM (inactive) | > 100 µM (inactive) | – | > 100 µM (inactive) | > 100 µM (inactive)
S=C(NN=C1NCCCCN1)Nc1ccccc1 | > 100 µM (inactive) | 23 µM (inactive) | > 100 µM (inactive) | 36.3 µM (inactive) | 13.1 µM (inactive) | – | > 100 µM (inactive) | 31.7 µM (inactive) | 36 µM (inactive) | 26.6 µM (inactive) | 40.4 µM (inactive) | > 100 µM (inactive) | 37.2 µM (inactive) | 31.6 µM (inactive) | 39 µM (inactive) | 9.93 µM (inactive) | 45.7 µM (inactive) | 64.9 µM (inactive) | 98.4 µM (inactive) | –
